Data published in patent US11389473B2, “Magnesium-containing oxytocin formulations and methods of use” (Tonix Pharmaceuticals Holding Corp., priority 2015, dated 2022).

How the values were obtained:
[1] = system: rat model of facial thermal nociception; assay: Rat model of facial thermal nociception (cheek withdrawal latency to radiant heat); type: in vivo; conditions: for analgesic effect (elevation in latency to withdrawal): 15-300 min
Protocol: The heat from a projector lamp was focused on the pre-shaved cheek of rats and the intensity was varied to obtain a withdrawal response with a latency of between 6.5 and 8.5 seconds. The intensity applied to achieve such latencies was recorded for each animal. Once stable/acceptable baseline values were obtained, the average latencies for each rat were calculated. After baseline cheek withdrawal latencies were determined for all rats, each rat received a single nasal administration of either normal saline, 15% magnesium chloride in water, or 1% magnesium lactate in water according to the method developed by Frey (Thorne, et al. Neuroscience., 127: 481-496 (2004)). Briefly, rats (under urethane anesthesia) were placed in a supine position with a rolled pad (2×2 gauze) inserted under the dorsal neck to extend the head back toward the supporting surface. The upper surface of the neck was kept horizontal throughout the dosing procedure to maintain the drug solution in the nasal cavity and minimize dripping down the nasopharynx. A 6 μL drop of the respective drug solution was delivered off the tip of a small pipette and presented to the nares on the left side of the rat while occluding the opposite nares. One drop was administered every 2 minutes, alternating between each nares (thus amounting to a four minute interval between doses to the same nares). Each nostril received 4 drops, totaling a combined volume of 48 μL (8 drops of 6 μL each). Drug solutions were coded in order to keep the experimenter blinded as to the substances delivered. Left cheek withdrawal latencies in response to radiant heat stimulation were then measured over the next 3 hours. Withdrawal latencies were measured prior to nasal administration and at 1, 2, and 3 hours post-treatment.
(§1) One of 4 concentrations of dibasic magnesium citrate (1:1 Mg/citrate) was applied to rats and the effects of these applications on responses to noxious thermal stimulation of the face were assessed as described above. Each rat received a single nasal administration of 3, 6, 10, or 12% magnesium citrate in water (6 rats/group) according to the method described above. Left cheek withdrawal latencies in response to radiant heat stimulation were then measured over the following 300 minutes. Withdrawal latencies were measured prior to nasal administration and at 15, 30, 45, 60, 120, 180, 240, and 300 min post-treatment.
as §1, with “3 doses” for “4 concentrations”, “oxytocin in buffered saline” for “dibasic magnesium citrate (1:1 Mg/citrate)”, “1, 4,” for “3, 6, 10,”, “8 μg oxytocin” for “12% magnesium citrate”, “aqueous solution” for “water”
Aqueous solutions containing a combination of magnesium citrate at one of 3 concentrations with oxytocin at one of 3 doses were applied nasally in rats and changes in withdrawal response latency were measured as above. Each rat received a single nasal administration of 1, 4, or 8 μg of oxytocin in aqueous solution containing 3, 6, or 12% magnesium citrate according to the method described above. Left cheek withdrawal latencies in response to radiant heat stimulation were then measured over the following 300 minutes. Withdrawal latencies were measured prior to nasal administration and at 15, 30, 45, 60, 120, 180, 240, and 300 min post-treatment.
Difference scores were generated for each time point after dosing by comparing the respective withdrawal response latency to pre-dosing (baseline) values.

[2] = system: patient with chronic tension-type headache; assay: Patient with chronic tension-type headache, neck and shoulder pain taking oxytocin sprays; type: in vivo, human
Source text: A patient with chronic tension-type headache reported having intense pain in their head, neck and shoulders. The patient took 4 sprays of 7.5 IU/spray oxytocin for a dose of 30 units, at which point their headache pain was gone, but the neck and shoulder pain remained. […] Thus, a higher dose was necessary to affect neck and shoulder pain than was necessary to inhibit head pain in the same patient.

[3] = system: rat paw inflammation model; assay: Rat paw inflammation model (complete Freund's adjuvant, forepaw force withdrawal threshold); type: in vivo; conditions: nasal
Protocol: The analgesic effect of nasally administered oxytocin on cervical nerve-associated inflammatory pain was assessed in a rat paw inflammation model (Martin et al., Pain 1999, 82:199-205). Oxytocin was nasally administered at one of three doses (193, 385 or 768 micrograms in 48 microliters) and force withdrawal thresholds in grams were determined following mechanical stimulation of the inflamed area (forepaw), at regular intervals over the next three hours, and compared against those of vehicle (phosphate buffered saline) treated rats. Injection of complete Freund's adjuvant into the left forepaw of rats produced a robust inflammation of that paw as well as a substantial decrease in the force necessary to elicit a withdrawal response (mechanical allodynia).

[4] = 1% in water, single nasal administration
[5] = 4 sprays of 7.5 IU/spray, dose of 30 units

## [Cl-].[Cl-].[Mg+2] [magnesium chloride]
[1]; 15% in water, single nasal administration
  analgesia at 2 and 3 hours after dosing: analgesia continuing
[1]; 15% in water, single nasal administration, 1 hour
  analgesic effect compared to nasal saline treated rats: strong analgesic effect

## CC(O)C(=O)[O-].CC(O)C(=O)[O-].[Mg+2] (centres unmarked) [magnesium lactate]
[1]; [4]
  analgesic effect: mild analgesic effect
  withdrawal latencies at the 2 and 3 hour time points: still substantially elevated
[1]; 1% in water, single nasal administration, 48 μL
  rise in withdrawal response latency: approximately 1.5 s

## CC[C@H](C)[C@@H]1NC(=O)[C@H](Cc2ccc(O)cc2)NC(=O)[C@@H](N)CSSC[C@@H](C(=O)N2CCC[C@H]2C(=O)N[C@@H](CC(C)C)C(=O)NCC(N)=O)NC(=O)[C@H](CC(N)=O)NC(=O)[C@H](CCC(N)=O)NC1=O [oxytocin, Cys-Tyr-Ile-Gln-Asn-Cys-Pro-Leu-Gly]
[2]; [5]
  headache pain: gone
  neck and shoulder pain: remained
[2]; additional 8-10 sprays, or a total of 60-75 IU
  neck and shoulder pain: receded and ceased
[3]; higher 2 doses, 385 or 768 micrograms in 48 microliters
  effect on mechanical allodynia resulting from inflammation: statistically significant partial reversal of the mechanical allodynia
[3]; lowest dose, 193 micrograms in 48 microliters
  effect on pain thresholds (force withdrawal threshold, inflamed forepaw): ineffective
[1]; 1 μg nasally applied
  withdrawal latency: no increase
[1]; 1, 4 or 8 μg in aqueous solution, single nasal administration
  analgesic effect (elevation in latency to withdrawal): clear dose-dependent analgesic effect
[1]; 4 and 8 μg nasally applied
  latency to withdrawal in response to noxious cheek heating: robust increase in latency to withdrawal

## magnesium citrate
[1]; 3, 6, 10 or 12% in water, single nasal administration
  analgesic effect (elevation in latency to withdrawal): clear dose-dependent analgesic effect
